Patent US8354402B2, “Polyarylcarboxamides useful as lipid lowering agents” (Janssen Pharmaceutica N.V., priority 2000, dated 2013)

These compounds were tested on ApoB secretion, HepG2 cells (assay: Quantification of the secretion of ApoB (HepG2 cells, immunoprecipitation, scintillation counting)). Details: Homo sapiens, 24 hours of incubation.
Assay type: cell-based
Protocol: C.1. Quantification of the Secretion of ApoB
HepG2 cells were cultured in 24-well plates in Minimal Essential Medium Rega 3 containing 10% fetal calf serum. Rega 3 has the following composition: CaCl2 (264 μg/ml), KCl (400 μg/ml), MgSO4.7H2O (200 μg/ml), NaCl (6800 μg/ml), NaHCO3 (850 μg/ml), NaH2PO4.H2O (158 μg/ml), D-glucose (1000 μg/ml), phenol red (10 μg/ml), L-alanine (8.9 μg/ml), L-arginine HCl (12 μg/ml), L-asparagine.H2O (15 μg/ml), L-aspartic acid (13.3 μg/ml), L-cystine (24 μg/ml), L-glutamic acid (14.7 μg/ml), glycine (7.5 μg/ml), L-histidine.HCl .H2O (42 μg/ml), L-isoleucine (52 μg/ml), L-leucine (52 μg/ml), L-lysine.HCl (72.5 μg/ml), L-methionine (15 μg/ml), L-phenylalanine (32 μg/ml), L-proline (11.5 μg/ml), L-serine (10.5 μg/ml), L-threonine (48 μg/ml), L-tryptophan (10 μg/ml), L-tyrosine (36 μg/ml), L-valine (46 μg/ml), D-Ca pantothenate (1 μg/ml), choline chloride (1 μg/ml), folic acid (1 μg/ml), 1-enositol (2 μg/ml), nicotinamide (1 μg/ml), pyridoxal HCl (1 μg/ml), riboflavin (0.1 μg/ml) and thiamine HCl (1 μg/ml).
At 70% confluency, the medium was changed and the test compound or carrier (dimethylsulfoxide, 0.4% final concentration) was added. After 24 hours of incubation, the medium was transferred to Eppendorf tubes and cleared by centrifugation. A sheep antibody directed against either apo B was added to the supernatant and the mixture was kept at 8° C. for 24 hours. Then, rabbit anti-sheep antibody was added and the immune complex was allowed to precipitate for 24 hours at 8° C. The immunoprecipitate was pelleted by centrifugation for 25 minutes at 1320 g and washed twice with a buffer containing 40 mM 4-morpholinepropanesulfonic acid, 40 mM NaH2PO4, 100 mM NaF, 0.2 mM dithiothreitol, 5 mM ethylenediamine tetraacetic acid, 5 mM ethylenebis (oxyethylenenitrilo) tetraacetic acid, 1% Triton-X-100, 0.5% sodium deoxycholate, 0.1% sodium dodecylsulphate, 0.2 μM leupeptin and 0.2 μM phenylmethylsulphonylfluoride. Radioactivity in the pellet was quantified by liquid scintillation counting.
Resulting IC50 values are enumerated in Table C.1 for a number of compounds No. 1 to No. 123.

SMILES	IC50 [nM]
CC(=O)N(c1ccccc1)C1CCN(c2ccc(NC(=O)c3ccccc3-c3ccc(C(F)(F)F)cc3)cc2)CC1 [Co. No. 253]	130
COC(=O)N(c1ccccc1)C1CCN(c2ccc(NC(=O)c3ccccc3-c3ccc(C(F)(F)F)cc3)cc2)CC1 [Co. No. 251]	9.64

Same assay, conditions: Homo sapiens, HepG2, 24 h, 24 hours of incubation

SMILES	IC50 [nM]
O=C(Nc1ccc(C2CCN(C(C(=O)OCc3ccccc3)c3ccccc3)CC2)cc1)c1ccccc1-c1ccc(C(F)(F)F)cc1 (stereo not drawn) [Co. No. 151]	612
CCOC(=O)C(c1ccccc1)C1CCN(c2ccc(NC(=O)c3ccccc3-c3ccc(C(F)(F)F)cc3)cc2)CC1 (stereo not drawn) [Co. No. 243]	< 30
Cc1ccccc1-c1ccccc1C(=O)Nc1ccc(N2CCC(C(C(=O)NCc3ccccc3)c3ccccc3)CC2)cc1 (stereo not drawn) [Co. No. 51]	68.7
O=C(Nc1ccc(N2CCN(C(C(=O)OCc3ccccc3)c3ccccc3)CC2)cc1)c1ccccc1-c1ccccc1 (stereo not drawn) [Co. No. 147]	287
C=CCOC(=O)C(c1ccccc1)N1CCN(c2ccc(NC(=O)c3ccccc3-c3ccc(C(F)(F)F)cc3)cc2)CC1 (stereo not drawn) [Co. No. 144]	202
CC(C)NC(=O)C(c1ccccc1)C1CCN(c2ccc(NC(=O)c3ccccc3Oc3ccccc3)cc2)CC1 (stereo not drawn) [Co. No. 27]	1300
CCCNC(=O)C(c1ccccc1)C1CCN(c2ccc(NC(=O)c3ccccc3-c3cccc(N)c3)cc2)CC1 (stereo not drawn) [Co. No. 133]	> 3000
C=CCOC(=O)C(c1ccccc1)N1CCC(c2ccc(NC(=O)c3ccccc3-c3ccc(C(F)(F)F)cc3)cc2)CC1 (stereo not drawn) [Co. No. 152]	94.4
CCCNC(=O)C(c1ccccc1)C1CCN(c2ccc(NC(=O)c3ccccc3-c3ccccc3OC)cc2)CC1 (stereo not drawn) [Co. No. 43]	1770
CC(C)NC(=O)C(c1ccccc1)C1CCN(c2ccc(NC(=O)c3cccc4c3-c3ccccc3C4)cc2)CC1 (stereo not drawn) [Co. No. 21]	245
CC(C)OC(=O)C(c1ccccc1)N1CCC(c2ccc(NC(=O)c3ccccc3-c3ccc(C(F)(F)F)cc3)cc2)CC1 (stereo not drawn) [Co. No. 223]	370
CCNC(=O)C(c1ccccc1)C1CCN(c2ccc(NC(=O)c3ccccc3-c3ccccc3OC)cc2)CC1 (stereo not drawn) [Co. No. 135]	149
Cc1ccc(-c2ccccc2C(=O)Nc2ccc(N3CCC(C(C(=O)Nc4ccccc4)c4ccccc4)CC3)cc2)cc1 (stereo not drawn) [Co. No. 117]	121
CC(C)NC(=O)C(c1ccccc1)C1CCN(c2ccc(NC(=O)c3ccccc3Cc3ccccc3)cc2)CC1 (stereo not drawn) [Co. No. 28]	767
O=C(Nc1ccc(N2CCC(C(C(=O)OCCCc3ccccc3)c3ccccc3)CC2)cc1)c1ccccc1-c1ccc(C(F)(F)F)cc1 (stereo not drawn) [Co. No. 246]	173
COC(=O)C(c1ccccc1)N1CCN(c2ccc(NC(=O)c3c(F)cccc3-c3ccc(C(F)(F)F)cc3)cc2)CC1 (stereo not drawn) [Co. No. 187]	41.1
O=C(Nc1ccc(N2CCC(C(C(=O)Nc3ccccc3)c3ccccc3)CC2)cc1)c1ccccc1-c1ccc(Cl)c(Cl)c1 (stereo not drawn) [Co. No. 110]	158
CCc1ccc(-c2ccccc2C(=O)Nc2ccc(N3CCC(C(C(=O)OC)c4ccccc4)CC3)cc2)cc1 (stereo not drawn) [Co. No. 231]	< 30
O=C(Nc1ccc(N2CCC(C(C(=O)NCc3ccccc3)c3ccccc3)CC2)cc1)c1ccccc1-c1cc(Cl)cc(Cl)c1 (stereo not drawn) [Co. No. 50]	93.8
O=C(Nc1ccc(N2CCN(C(C(=O)NCc3cccnc3)c3ccccc3)CC2)cc1)c1ccccc1-c1ccc(C(F)(F)F)cc1 (stereo not drawn) [Co. No. 59]	≤ 30
Nc1cccc(-c2ccccc2C(=O)Nc2ccc(N3CCC(C(C(=O)Nc4ccccc4)c4ccccc4)CC3)cc2)c1 (stereo not drawn) [Co. No. 111]	221
O=C(Nc1ccc(N2CCN(CC(C(=O)NCc3ccccc3)c3ccccc3)CC2)cc1)c1ccccc1-c1ccc(C(F)(F)F)cc1 (stereo not drawn) [Co. No. 67]	247
O=C(Nc1ccc(C2CCN(C(C(=O)OCCc3ccccc3)c3ccccc3)CC2)cc1)c1ccccc1-c1ccc(C(F)(F)F)cc1 (stereo not drawn) [Co. No. 266]	25.6
CCCNC(=O)C(c1ccccc1)C1CCN(c2ccc(NC(=O)c3ccccc3-c3ccc(Cl)cc3)cc2)CC1 (stereo not drawn) [Co. No. 68]	≤ 30
COC(=O)C(c1ccccc1)N1CCN(c2ccc(NC(=O)c3c(C)cccc3-c3ccc(C(F)(F)F)cc3)cc2)CC1 (stereo not drawn) [Co. No. 188]	10
COC(=O)C(c1ccc(Cl)cc1)N1CCN(c2ccc(NC(=O)c3ccccc3-c3ccc(C(F)(F)F)cc3)cc2)CC1 (stereo not drawn) [Co. No. 263]	279

SMILES	IC50 [nM]
CCCNC(=O)C(c1ccccc1)C1CCN(c2ccc(NC(=O)c3ccccc3-c3cccc4ccccc34)cc2)CC1 (stereo not drawn) [Co. No. 42]	≥ 3000
O=C(Nc1ccc(C2=CCN(C(C(=O)Nc3ccccc3)c3ccccc3)CC2)cc1)c1ccccc1-c1ccc(C(F)(F)F)cc1 (stereo not drawn) [Co. No. 164]	100
CCNC(=O)C(c1ccccc1)C1CCN(c2ccc(NC(=O)c3ccccc3-c3ccc(Cl)c(Cl)c3)cc2)CC1 (stereo not drawn) [Co. No. 88]	≤ 30
CCNC(=O)C(c1ccccc1)N1CCN(c2ccc(NC(=O)c3cc(OC)c(OC)cc3-c3ccc(C(F)(F)F)cc3)cc2)CC1 (stereo not drawn) [Co. No. 202]	184
CCCCNC(=O)C(CN1CCN(c2ccc(NC(=O)c3ccccc3-c3ccc(C(F)(F)F)cc3)cc2)CC1)c1ccccc1 (stereo not drawn) [Co. No. 64]	159
CCNC(=O)C(c1ccccc1)N1CCN(c2cc(C)c(NC(=O)c3ccccc3-c3ccc(C(F)(F)F)cc3)c(C)c2)CC1 (stereo not drawn) [Co. No. 216]	47.1
C=CCNC(=O)C(c1ccccc1)N1CCC(c2ccc(NC(=O)c3ccccc3-c3ccccc3)cc2)CC1 (stereo not drawn) [Co. No. 163]	250
O=C(Nc1ccc(N2CCC(C(C(=O)Nc3ccccc3)c3ccccc3)CC2)cc1)c1ccccc1Cc1ccccc1 (stereo not drawn) [Co. No. 35]	≥ 3000
C=CCOC(=O)C(c1ccccc1)C1CCN(c2ccc(NC(=O)c3ccccc3-c3ccccc3)cc2)CC1 (stereo not drawn) [Co. No. 179]	403
CCNC(=O)C(c1ccccc1)N1CCN(c2ccc(NC(=O)c3ccc(C)cc3-c3ccc(C(F)(F)F)cc3)cc2)CC1 (stereo not drawn) [Co. No. 194]	43
CCCOC(=O)C(c1ccccc1)N1CCCN(c2ccc(NC(=O)c3ccccc3-c3ccc(C(F)(F)F)cc3)cc2)CC1 (stereo not drawn) [Co. No. 121]	2110
CCNC(=O)C(c1ccccc1)N1CCCN(c2ccc(NC(=O)c3ccccc3-c3ccc(C(F)(F)F)cc3)cc2)CC1 (stereo not drawn) [Co. No. 122]	414
CCNC(=O)C(c1ccccc1)N1CCC(c2ccc(NC(=O)c3ccccc3-c3ccccc3)cc2)CC1 (stereo not drawn) [Co. No. 149]	41.7
CC(C)CCOC(=O)C(c1ccccc1)N1CCC(c2ccc(NC(=O)c3ccccc3-c3ccc(C(F)(F)F)cc3)cc2)CC1 (stereo not drawn) [Co. No. 227]	187
O=C(Nc1ccc(N2CCN(C(C(=O)Oc3ccccc3)c3ccccc3)CC2)cc1)c1ccccc1-c1ccccc1 (stereo not drawn) [Co. No. 150]	173
CCNC(=O)C(c1ccccc1)C1CCN(c2ccc(NC(=O)c3ccccc3-c3cccc(Cl)c3)cc2)CC1 (stereo not drawn) [Co. No. 86]	84.1
O=C(Nc1ccc(N2CCC(C(C(=O)Nc3ccccc3)c3ccccc3)CC2)cc1)c1ccccc1-c1cccc2ccccc12 (stereo not drawn) [Co. No. 137]	1770
O=C(Nc1ccc(N2CCC(C(C(=O)NCc3ccccc3)c3ccccc3)CC2)cc1)c1cccc2c1Cc1ccccc1-2 (stereo not drawn) [Co. No. 4]	≥ 3000
CCCNC(=O)C(c1ccccc1)C1CCN(c2ccc(NC(=O)c3ccccc3-c3ccc4ccccc4c3)cc2)CC1 (stereo not drawn) [Co. No. 47]	199
O=C(Nc1ccc(N2CCC(C(C(=O)Nc3ccccc3)c3ccccc3)CC2)cc1)c1ccccc1-c1ccccc1C(F)(F)F (stereo not drawn) [Co. No. 109]	1470
CC(C)NC(=O)C(c1ccccc1)N1CCN(c2ccc(NC(=O)c3ccccc3-c3ccc(C(F)(F)F)cc3)cc2)CC1 (stereo not drawn) [Co. No. 56]	≤ 30
CCCNC(=O)C(c1ccccc1)C1CCN(c2ccc(NC(=O)c3ccccc3-c3cc(Cl)cc(Cl)c3)cc2)CC1 (stereo not drawn) [Co. No. 97, 3′,5′-dichloro-N-[4-[4-[2-oxo-1-phenyl-2-(propylamino)ethyl]-1-piperidinyl]phenyl]-[1,1′-biphenyl]-2-carboxamide]	234
COC(=O)C(c1ccccc1)N1CCN(c2ccc(NC(=O)c3ccccc3-c3ccc(C(F)(F)F)cc3)c(Cl)c2)CC1 (stereo not drawn) [Co. No. 207]	< 30
CCNC(=O)C(c1ccccc1)C1CCN(c2ccc(NC(=O)c3ccccc3-c3cccc(N)c3)cc2)CC1 (stereo not drawn) [Co. No. 89]	363
CCCNC(=O)C(c1ccccc1)C1CCN(c2ccc(NC(=O)c3ccccc3-c3cccc(C(F)(F)F)c3)cc2)CC1 (stereo not drawn) [Co. No. 48]	634
COC(=O)C(c1ccccc1)N1CCN(c2ccc(NC(=O)c3ccccc3-c3ccc(C(F)(F)F)cc3)cc2Cl)CC1 (stereo not drawn) [Co. No. 205]	47.5
